# Data as given in patent publication US20180015088A1, “SITE SPECIFIC DOSING OF A BTK INHIBITOR” (Principia Biopharma Inc., priority 2014, published 2018).
# Like-named read-outs stand apart in the source and are kept apart here.
# How the values were obtained:
# [1] = Solubility of the salt in water at ambient temperature; assay type: physicochemical
# Method: To the solution of (R)-2-[3-[4-amino-3-(2-fluoro-4-phenoxy-phenyl)pyrazolo[3,4-d]pyrimidin-1-yl]piperidine-1-carbonyl]-4-methyl-4-[4-(oxetan-3-yl)piperazin-1-yl]pent-2-enenitrile (having about 9/1 E/Z ratio) (4.2 g) in EtOAc (60 mL, 15 vol) was added sulfuric acid (0.31 g, 0.17 mL, 0.5 eq) in EtOAc (20 mL, 5 vol) at ambient temperature. The suspension was stirred at ambient temperature for ˜2 hr and then 40° C. for 4 hr and then at ambient temperature for at least 1 hr. After filtration and drying at ambient temperature under vacuum, 1.5 g of white powder was obtained. Solubility of the hemi-sulfate at ambient temperature was >100 mg/mL in water.
# [2] = system: intestinal tissue (stomach, duodenum, jejunum, ileum, colon); experiment: In vitro permeation in Ussing chambers through different intestinal regions of rat; assay type: in vitro ADME, Sprague-Drawley rats; details: 100 uM, mucosal to serosal, distal regions compared to stomach or duodenum, FIG. 7
# Method: Reagents: 10× Krebs-Ringer buffer (KRB) comprised of 1.26M NaCl (Promega, Madison, Wis.), 25mM KCl, 250 mM NaHCO3, 12 mM NaH2PO4, 12 mM MgCl2, 25 mM CaCl2 and 18 g/L D-Glucose (all from Sigma Aldrich, St. Louis, Mo.) prepared and stored individually to prevent crystallization. Dilute to 1× working concentration prior to use and pH adjusted with either carbogen perfusion for 20 mins to pH 7.4 (oxygenated KRB) or 1M HCl (Alfar Aesar, Ward Hill, Mass.) to pH 3.5, 6.5 or 7.4. 0.1% Phenol red, Antipyrine and Atenolol were purchased from Sigma Aldrich, St. Louis, Mo.
# Harvest and preparation of intestinal tissue: 4 to 9 month old adult female virgin Sprague-Drawley rats (Harlan Laboratories, Livermore, Calif.) were acclimated in-house for a minimum of 3 days prior to experimentation. Adolescent and geriatric animals should be avoided to prevent age-related differences in gastro-intestinal morphology and function. Animals were housed under IACUC-approved husbandry protocols including 12-hour light and 12-hour dark cycles, and allowed standard chow and water ad libitum. Tissue harvest should be performed one animal at a time to maintain tissue viability. […]
# [3] = Solubility of Compound (I) at low pH; assay type: physicochemical
# [4] = Site specific gastrointestinal dosing (oral gavage, intraduodenal, intrajejunal) in rats, plasma AUC; assay type: in vivo, Wister-Hans rats; details: for AUC: Wister-Hans, rat, plasma
# Method: Compound (I) was dosed in 10 mg/mL aqueous citrate solution at 20 mg/kg to Wister-Hans rats. Free base of Compound (I) was dissolved in aqueous solution of citric acid (containing 0.5 equivalents of anhydrous citiric acid) . The experiment was repeated 3 times each with 2 separate arms, and one oral (PO) gavage arm was included in each study. Intra-jejunal (IJ) and intra-duodenal (ID) dosing was done in cannulated rats. In the first study, there was about 40-fold increase in the AUC for the IJ-dosed group compared to the PO group, and the major metabolite, present in the PO arm was reduced by 20 fold in the IJ-group.
solubility [1] [mg/mL],permeability (Papp) by region of the GI tract [2],solubility at low pH [3],"increase in AUC, ID compared to oral gavage ([4]; ID vs PO)",metabolic stability by site of administration ([4]; IJ dosing compared to oral gavage),"AUC ([4]; 20 mg/kg, intraduodenum cannula, 20 mg/kg, aqueous citrate solution, read-out: AUC, intraduodenal (ID) dosing) [µg·h/mL]","AUC ([4]; other: intrajejunal, 20 mg/kg, intrajejunum cannula, 20 mg/kg, aqueous citrate solution, read-out: AUC, intrajejunal (IJ) dosing) [µg·h/mL]","AUC ([4]; po, 20 mg/kg, oral (PO) gavage, 20 mg/kg, 10 mg/mL aqueous citrate solution, read-out: AUC, oral gavage) [µg·h/mL]","AUC, intrajejunal (IJ) dosing ([4]; intrajejunum cannula, 20 mg/kg, aqueous citrate solution)","AUC, oral gavage ([4]; oral (PO) gavage, 20 mg/kg, 10 mg/mL aqueous citrate solution) [µg·h/mL]",Compound
> 100,–,–,–,–,–,–,–,–,–,"CC(C)(C=C(C#N)C(=O)N1CCC[C@@H](n2nc(-c3ccc(Oc4ccccc4)cc3F)c3c(N)ncnc32)C1)N1CCN(C2COC2)CC1 [hemi-sulfate, (R)-2-[3-[4-amino-3-(2-fluoro-4-phenoxy-phenyl)pyrazolo[3,4-d]pyrimidin-1-yl]piperidine-1-carbonyl]-4-methyl-4-[4-(oxetan-3-yl)piperazin-1-yl]pent-2-enenitrile]"
–,statistically increased permeabilities,greater than 10 % (w/v),approximately 2 fold,more metabolically stable,1.78,14.4,0.668 to 1.64,"26,800 ng*hr/ml",0.994,"CC(C)(C=C(C#N)C(=O)N1CCCC(n2nc(-c3ccc(Oc4ccccc4)cc3F)c3c(N)ncnc32)C1)N1CCN(C2COC2)CC1 [Compound (I), (R)-2-[3-[4-amino-3-(2-fluoro-4-phenoxy-phenyl)pyrazolo[3,4-d]pyrimidin-1-yl]piperidine-1-carbonyl]-4-methyl-4-[4-(oxetan-3-yl)piperazin-1-yl]pent-2-enenitrile]"
